Experiment [1] relates to telo21 (DNA, G4) GGGTTAGGGTTAGGGTTAGGG
Put plainly: fluorescence titration. The conditions noted are these: K+ 60 mM; 10 mM Tris-HCl pH 7.4; ligand 5 μM.

Experiment [2] relates to dA21 (DNA, single strand) AAAAAAAAAAAAAAAAAAAAA
Put plainly: fluorescence enhancement. The conditions noted are these: K+ 60 mM; Tris-HCl pH 7.4; ligand 5 μM.

Experiment [3] deals with ds26 (DNA, duplex) CAATCGGATCGAATTCGATCCGATTG
As to the kind of experiment: fluorescence enhancement. The conditions noted are these: K+ 60 mM; Tris-HCl pH 7.4; ligand 5 μM.

The results in this text go back to PMC9080739 (2018).

On to `CN(C)c1ccc(/C=C/c2cccc(/C=C/c3ccc(N(C)C)cc3)[n+]2C)cc1`, for which the K in experiment [1] is recorded as 1.44 ± 0.35 × 10^5 M^-1. The binding result in experiment [2] and in experiment [3] was “weak” throughout.
With `CSc1ccc(/C=C/c2cccc(/C=C/c3ccc(SC)cc3)[n+]2C)cc1`, the K in experiment [1] was 1.18 ± 0.21 × 10^5 M^-1.
